Test results as given in patent US4940705A, “N-substituted derivatives of 1-desoxynojirimycin and 1-desoxymannonojirimycin and pharmaceutical use” (Bayer Aktiengesellschaft, priority 1987, dated 1990).
In brackets after ≈: the same amount, converted by molar mass.

Legend:
Visna virus = Visna virus test: inhibition of virus-induced cytopathic effect / virus multiplication in infected cell cultures; assay type: cell-based; details: Visna-maedi virus, 168 h, sheep fibroblast cells, 7 days at 37° C., Table 1, read-out: 2 MIC (minimum concentration at which an inhibition of virus multiplication was still observed)
Method: In cell cultures which are infected with Visna virus, pronounced virus-induced, cytopathic effects appear 5 to 10 days after infection. By treatment of the infected cell cultures with the compounds according to the invention, the appearance of these cytopathic effects could be prevented.
(§1) The Visna virus test was carried out by the method of O. Narayan et al., Journal of Infectious Diseases 135, 5, 1977, 800-806. For this, the compounds according to the invention were diluted to non-cytotoxic concentrations in culture medium in 96-well microtiter plates. Subsequently, sheep fibroblast cells (5×10^4 cells per well) in production medium were added to each well. Each well then contained 50 μl of a Visna virus solution having a titre of about 2.5×10^4TCID50 (TCID=tissue culture infectious dose). This virus dose corresponds to an MOI (multiplicity of infection) of about 0.05.
The infected and treated cells and the controlled cells were incubated for 7 days at 37° C. and 5% CO2.
On appearance of the virus-induced cytopathogenic effect in the untreated virus control, the cultures were fixed using formalin and subsequently stained with a Giemsa solution.
(§2) Herein, MCC denotes cytotoxicity and MIC denotes the minimum concentration at which an inhibition of virus multiplication was still observed.

Cytotoxicity (MCC) = assay type: cell-based; details: sheep, sheep fibroblast cells; MCC denotes cytotoxicity; Table 1
Method: as §1, §2

Structure (SMILES)	MIC (Visna virus)	MCC (Cytotoxicity (MCC))
O=C(CCN1C[C@H](O)[C@@H](O)[C@H](O)[C@H]1CO)Nc1ccc(OCc2ccccc2)cc1 [Example 4, N-(4-Benzyloxyphenyl)-3-(1,5-didesoxy-1,5-imino-D-glucit-N-yl)propionamide]	125 µg/mL (≈ 300 µM)	> 1000 µg/mL
CC(C)(C)c1ccc(NC(=O)CCN2C[C@H](O)[C@@H](O)[C@H](O)[C@H]2CO)cc1 [Example 7, N-(4-Tert.-butylphenyl)-3-(1,5-didesoxy-1,5-imino-D-glucit-N-yl)propionamid]	500 µg/mL (≈ 1360 µM)	> 1000 µg/mL
C=CCOc1ccc(NC(=O)CCN2C[C@H](O)[C@@H](O)[C@H](O)[C@H]2CO)cc1 [Example 10, N-(4-Allyloxyphenyl)-3-(1,5-didesoxy-1,5-imino-D-glucit-N-yl)propionamide]	30 µg/mL (≈ 81.9 µM)	> 1000 µg/mL
O=C(CCN1C[C@H](O)[C@@H](O)[C@H](O)[C@H]1CO)Nc1ccc(C(F)(F)F)cc1 [Example 11, N-(4-Trifluoromethylphenyl)-3-(1,5-didesoxy-1,5-imino-D-glucit-N-yl)propionamide]	500 µg/mL (≈ 1320 µM)	> 1000 µg/mL
O=C(CCN1C[C@H](O)[C@@H](O)[C@H](O)[C@H]1CO)Nc1ccc(OC(F)(F)C(F)Cl)cc1 (stereo partly drawn) [Example 12, N-[4-(2-Chloro-1,1,2-trifluoroethoxy)phenyl]-3-(1,5-didesoxy-1,5-imino-D-glucit-N-yl)propionamide]	250 µg/mL (≈ 565 µM)	1000 µg/mL
CC(C)c1ccccc1NC(=O)CCN1C[C@H](O)[C@@H](O)[C@H](O)[C@H]1CO [Example 14, N-(2-Isopropylphenyl)-3-(1,5-didesoxy-1,5-imino-D-glucit-N-yl)propionamide]	125 µg/mL (≈ 355 µM)	> 1000 µg/mL
O=C(CCN1C[C@H](O)[C@@H](O)[C@H](O)[C@H]1CO)Nc1ccccc1F [Example 16, N-(2-Fluorophenyl)-3-(1,5-didesoxy-1,5-imino-D-glucit-N-yl)propionamide]	250 µg/mL (≈ 761 µM)	> 1000 µg/mL
O=C(CCN1C[C@H](O)[C@@H](O)[C@H](O)[C@H]1CO)N1CCc2ccccc21 [Example 17, 1-[3-(1,5-Didesoxy-1,5-imino-D-glucit-N-yl)propionyl]-2,3-dihydroindole]	125 µg/mL (≈ 372 µM)	1000 µg/mL
O=C(CCN1C[C@H](O)[C@@H](O)[C@H](O)[C@H]1CO)Nc1ccc(F)cc1F [Example 18, N-(2,4-Difluorophenyl)-3-(1,5-didesoxy-1,5-imino-D-glucit-N-yl)propionamide]	500 µg/mL (≈ 1440 µM)	> 1000 µg/mL
O=C(CCN1C[C@H](O)[C@@H](O)[C@H](O)[C@H]1CO)Nc1ccc(F)c(F)c1 [Example 19, N-(3,4-Difluorophenyl)-3-(1,5-didesoxy-1,5-imino-D-glucit-N-yl)propionamide]	125 µg/mL (≈ 361 µM)	> 1000 µg/mL
COc1cc(NC(=O)CCN2C[C@H](O)[C@@H](O)[C@H](O)[C@H]2CO)cc(OC)c1OC [Example 23, N-(3,4,5-Trimethoxyphenyl)-3-(1,5-didesoxy-1,5-imino-D-glucit-N-yl)propionamide]	75 µg/mL (≈ 187 µM)	150 µg/mL
COc1ccc(NC(=O)CCN2C[C@H](O)[C@@H](O)[C@H](O)[C@H]2CO)cc1OC [Example 24, N-(3,4-Dimethoxyphenyl)-3-(1,5-didesoxy-1,5-imino-D-glucit-N-yl)propionamide]	125 µg/mL (≈ 337 µM)	> 1000 µg/mL
COc1cc(NC(=O)CCN2C[C@H](O)[C@@H](O)[C@H](O)[C@H]2CO)cc(OC)c1 [Example 25, N-(3,5-Dimethoxyphenyl)-3-(1,5-didesoxy-1,5-imino-D-glucit-N-yl)propionamide]	250 µg/mL (≈ 675 µM)	> 1000 µg/mL
N#Cc1cccc(NC(=O)CCN2C[C@H](O)[C@@H](O)[C@H](O)[C@H]2CO)c1 [Example 27, N-(3-Cyanophenyl)-3-(1,5-didesoxy-1,5-imino-D-glucit-N-yl)propionamide]	250 µg/mL (≈ 745 µM)	> 1000 µg/mL
O=C(CCN1C[C@H](O)[C@@H](O)[C@H](O)[C@H]1CO)Nc1ccc(C2CCCCC2)cc1 [Example 28, N-(4-Cyclohexylphenyl)-3-(1,5-didesoxy-1,5-imino-D-glucit-N-yl)propionamide]	500 µg/mL (≈ 1270 µM)	> 1000 µg/mL
O=C(CCN1C[C@H](O)[C@@H](O)[C@H](O)[C@H]1CO)Nc1ccc2c(c1)OCCO2 [Example 29, N-(3,4-Ethylenedioxyphenyl)-3-(1,5-didesoxy-1,5-imino-D-glucit-N-yl)propionamide]	125 µg/mL (≈ 339 µM)	> 1000 µg/mL
O=C(CCN1C[C@H](O)[C@@H](O)[C@H](O)[C@H]1CO)Nc1ccc2c(c1)OCO2 [Example 31, N-(3,4-Methylenedioxyphenyl)-3-(1,5-didesoxy-1,5-imino-D-glucit-N-yl)propionamide]	125 µg/mL (≈ 353 µM)	> 1000 µg/mL

Structure (SMILES)	MIC (Visna virus)	MCC (Cytotoxicity (MCC))
CSc1ccccc1NC(=O)CCN1C[C@H](O)[C@@H](O)[C@H](O)[C@H]1CO [Example 32, N-(2-Methylthiophenyl)-3-(1,5-didesoxy-1,5-imino-D-glucit-N-yl)propionamide]	250 µg/mL (≈ 701 µM)	> 1000 µg/mL
O=C(CCN1C[C@H](O)[C@@H](O)[C@H](O)[C@H]1CO)Nc1ccccc1 [Example 34, N-Phenyl-3-(1,5-didesoxy-1,5-imino-D-glucit-N-yl)propionamide]	15 µg/mL (≈ 48.3 µM)	> 1000 µg/mL
CCOc1ccc(NC(=O)CCN2C[C@H](O)[C@@H](O)[C@H](O)[C@H]2CO)cc1 [Example 35, N-(4-Ethoxyphenyl)-3-(1,5-didesoxy-1,5-imino-D-glucit-N-yl)propionamide]	15 µg/mL (≈ 42.3 µM)	250 µg/mL
O=C(CCN1C[C@H](O)[C@@H](O)[C@H](O)[C@H]1CO)NCc1ccccn1 [Example 38, N-(2-Pyridylmethyl)-3-(1,5-didesoxy-1,5-imino-D-glucit-N-yl)propionamide]	250 µg/mL (≈ 768 µM)	1000 µg/mL
O=C(CCN1C[C@H](O)[C@@H](O)[C@H](O)[C@H]1CO)Nc1ccc(OCCO)cc1 [Example 40, N-[4-(2-Hydroxyethoxy)phenyl]-3-(1,5-didesoxy-1,5-imino-D-glucit-N-yl)propionamide]	15 µg/mL (≈ 40.5 µM)	> 1000 µg/mL
O=C(CCN1C[C@H](O)[C@@H](O)[C@H](O)[C@H]1CO)N1CCN(c2ccc(F)cc2)CC1 [Example 41, 3-(1,5-Didesoxy-1,5-imino-D-glucit-N-yl)propionyl-1-(4-p-fluorophenyl)piperazine]	125 µg/mL (≈ 315 µM)	1000 µg/mL
COC(=O)c1ccc(NC(=O)CCN2C[C@@H](O)[C@@H](O)[C@H](O)[C@H]2CO)cc1 [Example 43, N-(4-Methoxycarbonylphenyl)-3-(1,5-didesoxy-1,5-imino-D-mannit-N-yl)propionamide]	500 µg/mL (≈ 1360 µM)	> 1000 µg/mL
CCN(CC)CCOc1ccc(NC(=O)CCN2C[C@@H](O)[C@@H](O)[C@H](O)[C@H]2CO)cc1 [Example 50, N-[4-(2-N,N-Diethylaminoethoxy)phenyl]-3-(1,5-didesoxy-1,5-imino-D-mannit-N-yl)propionamide]	250 µg/mL (≈ 588 µM)	1000 µg/mL
C=CCOc1ccc(NC(=O)CCN2C[C@@H](O)[C@@H](O)[C@H](O)[C@H]2CO)cc1 [Example 51, N-(4-Allyloxyphenyl)-3-(1,5-didesoxy-1,5-imino-D-mannit-N-yl)propionamide]	250 µg/mL (≈ 682 µM)	1000 µg/mL
O=C(CCN1C[C@@H](O)[C@@H](O)[C@H](O)[C@H]1CO)Nc1ccc(OC(F)(F)C(F)Cl)cc1 (stereo partly drawn) [Example 53, N-[4-(2-Chloro-1,1,2-trifluoroethoxy)phenyl]-3-(1,5-didesoxy-1,5-imino-D-mannit-N-yl)propionamide]	250 µg/mL (≈ 565 µM)	500 µg/mL
CC(C)c1ccc(NC(=O)CCN2C[C@@H](O)[C@@H](O)[C@H](O)[C@H]2CO)cc1 [Example 54, N-(4-Isopropylphenyl)-3-(1,5-didesoxy-1,5-imino-D-mannit-N-yl)propionamide]	250 µg/mL (≈ 709 µM)	1000 µg/mL
CC(C)c1ccccc1NC(=O)CCN1C[C@@H](O)[C@@H](O)[C@H](O)[C@H]1CO [Example 55, N-(2-Isopropylphenyl)-3-(1,5-didesoxy-1,5-imino-D-mannit-N-yl)propionamide]	250 µg/mL (≈ 709 µM)	1000 µg/mL
O=C(CCN1C[C@@H](O)[C@@H](O)[C@H](O)[C@H]1CO)Nc1ccc(F)c(F)c1 [Example 60, N-(3,4-Difluorophenyl)-3-(1,5-didesoxy-1,5-imino-D-mannit-n-yl)propionamide]	500 µg/mL (≈ 1440 µM)	> 1000 µg/mL
COc1cc(NC(=O)CCN2C[C@@H](O)[C@@H](O)[C@H](O)[C@H]2CO)cc(OC)c1 [Example 66, N-(3,5-Dimethoxyphenyl)-3-(1,5-didesoxy-1,5-imino-D-mannit-N-yl)propionamide]	500 µg/mL (≈ 1350 µM)	1000 µg/mL
N#Cc1cccc(NC(=O)CCN2C[C@@H](O)[C@@H](O)[C@H](O)[C@H]2CO)c1 [Example 68, N-(3-Cyanophenyl)-3-(1,5-didesoxy-1,5-imino-D-mannit-N-yl)propionamide]	250 µg/mL (≈ 745 µM)	500 µg/mL
O=C(CCN1C[C@@H](O)[C@@H](O)[C@H](O)[C@H]1CO)Nc1ccc2c(c1)OCO2 [Example 72, N-(3,4-Methylenedioxyphenyl)-3-(1,5-didesoxy-1,5-imino-N-yl)propionamide]	500 µg/mL (≈ 1410 µM)	> 1000 µg/mL
CCOc1ccc(NC(=O)CCN2C[C@@H](O)[C@@H](O)[C@H](O)[C@H]2CO)cc1 [Example 76, N-(4-Ethoxyphenyl)-3-(1,5-didesoxy-1,5-imino-D-mannit-N-yl)propionamide]	500 µg/mL (≈ 1410 µM)	> 1000 µg/mL
